Read-outs that look alike come from different tables or passages of the source.
Columns and labels:
Gram-positive = assay: Antibiogram of tissue fragment cultures of infected diabetic foot ulcers, Gram-positive; type: cell-based; details: 51 cultures of tissue fragment, WHONET 5.6, Graphic 2
Text: DFU patients with tissue fragment culture and antibiogram were included in the study sample. Microbiota resistance profile analyzed through WHO freeware softwares BACLINK 2.0 and WHONET 5.6.

[1] = tested on: Slc2a4/GLUT4 expression in 3T3-L1 cell line adipocytes; assay: Slc2a4/GLUT4 expression in adipocytes (Western blotting, RTqPCR); type: cell-based; details: 24 h; E2 10 nM; PPT 10 nM; DPN 100 nM, in the presence or absence of E2
Protocol: It is known that estradiol (E2) via its receptors, ER-alpha and ER-beta, regulates the gene expression through direct binding to DNA, or through interactions with transcription factors, among them SP1 (Sp1 transcription factor). […] Thus, the role of SP1 in the expression of estradiol-mediated Slc2a4/GLUT4 in 3T3-L1 cell line adipocytes was evaluated in an attempt to understand the role of each estradiol receptors in this regulation. For this, the adipocytes were treated with 10 nM estradiol plus 0.05% DMSO (used to solubilize the ER agonists) for 24 h. Cells were also cultured with selective agonists of the different ER isoforms. To evaluate the ER-alpha, the PPT was used, in the concentration of 10 nM, with or without 10 nM of E2 (10E2 + PPT); to evaluate the ER-beta, the DPN was used in the concentration of 100 nM, with or without 10 nM of E2 (10E2 + DPN); always for 24 h. In the control group (0E2), cells were treated with only 0.05% DMSO (vehicle of agonists). The analyzes were: quantification of total GLUT4 protein, nuclear SP1 and nuclear ER-alpha/beta (Western blotting); expression of the Slc2a4 and Sp1 (RTqPCR) genes; and binding activity of the ERs to the SP1 binding site on the Slc2a4 promoter (electrophoretic mobilization, EMSA). Treatment with E2 increased the expression of Slc2a4/GLUT4. […] However, it was observed that both ERalpha and ER-beta activation increased the nuclear content of the transcription factor SP1, however, only the ER-alpha effect, especially isolated, seems to involve SP1 in the observed regulation.

[2] = tested on: healthy and non-diabetic women; details: after 7 days
Protocol: Methods: Twenty healthy and non-diabetic women (19–37 years old) were evaluated at baseline and 7 days after dapagliflozin (10 mg/day), maintaining their regular lifestyle. Body mass index (BMI), sagittal abdominal diameter, body composition by electrical bioimpedance and energy expenditure of resting and oxidation of energetic substrates in fasting by indirect calorimetry were analyzed. Functional magnetic resonance imaging detected the activation of brain areas against the stimulation of glucose and dapagliflozin. From the oral glucose tolerance test (TTOG), insulin sensitivity, hepatic insulin extraction and beta-cell function were assessed by mathematical modeling. Moreover, glucose, insulin, peptide C, glucacon, glycated hemoglobin, adiponectin and free fatty acids were measured.

[3] = tested on: patient with type 2 diabetes mellitus
Protocol: Case report: M.G.G.A, person, married, sought an endocrinologist in 2014 due to the diagnosis of type 2 diabetes mellitus 3 years ago, they used glimeperide 4 mg/day and metformin (MTF) 1 g/day. They were hypertensive and dyslipidemic, already under treatment, and reported difficulty in losing and maintaining weight for several years. They denied physical activity (PA) practice for 1 month (before walking 3x/week) and in a 24-hour diet reminder there was an excess of simple carbohydrate (SC) intake and saturated fat (SF). […] The patient was oriented to change their lifestyle and it was also requested exams. […] At this time, due financial limitation, they were directed to maintain medications, prescribed vitamin D3 14,000 IU/week and stimulated lifestyle change (LC).

patients with DM1 = tested on: patients with DM1
Protocol: Methods: Observational and retrospective study in which they were analysed the medical recordo f patients with DM1 who made use of this medication in dose of 10 mg/day through 3-6 months.

C57BL/6 mice = tested on: C57BL/6 mice
Protocol: Methods: C57BL/6 mice received vehicle or dapagliflozin (1, 5 or 10 mg/kg) by gavage once a day for 2 weeks. Body weight and food intake were evaluated at treatment times 0, 7 and 14 days. At the end of the treatment, glucose tolerance was evaluated by ipGTT as well as epididymal adipose tissue weight and neurotransmitters by immunofluorescence.

[4] = tested on: patient with type 2 diabetes; details: in vivo
Protocol: An overweight person (BMI 37.4 kg/m^2) with a 9-year history of type 2 diabetes had been taking metformin (1 g/day), glyburide (10 mg/day) and vildaglipitin (100 mg/day) for 7 years. They were admitted for elective bariatric surgery and stopped their medications a day before. […] It is known that there are some factors that contribute for DKA, like decreasing in-carbohydrate intake, infection or reduction of insulin therapy.

[5] = tested on: patients after Roux-en-Y gastric bypass; assay: Postprandial hyperinsulinemic hypoglycemia after RYGB, case series; type: in vivo, human; details: Case 1
Protocol: Cases report: Case (1) A person developed postprandial hypoglycemic episodes 6 years after Roux-en-Y gastric bypass (RYGB). A mixed meal tolerance test (MMTT, 500 kcal, 20% protein, 20% fat and 60% carbohydrates) was performed, leading to symptomatic postprandial hyperinsulinemic hypoglycemia (PHH) with a nadir of 45 mg/dL at 120 min (insulin of 8 mU/L; C-peptide of 3.21 ng/mL). […] Cases 2 and 3). Two […] women presented hypoglycemia following meals 3 and 5 years after RYGB. MMTT (120 min): glycemia of 34 mg/dL, insulin of 17 mU/L and C-peptide of 6.23 ng/mL and, in the second one, glycemia of 52 mg/dL, insulin of 9 mU/L and C-peptide of 2.7 ng/mL. PT and MRCP were normal in both cases. […] Case 4). A person who underwent RYGB 1.5 years ago reported hypoglycemic episodes in the last 6 months. MMTT: glycemia of 26 mg/dL at 150 min, insulin of 34 mU/L and C-peptide of 6.03 ng/mL. […] They were submitted to distal pancreatectomy and symptoms disappeared after diazoxid and hydrochlorothiazide. Case 5). A person developed hypoglycemia 10 years after RYGB. […] MMTT: glycemia of 43 mg/dL at 120 min, insulin of 100 mU/L and C-peptide of 1.95 ng/mL. […] Antiinsulin antibodies were negative in all cases (Table 1).

patient with T2DM = type: in vivo; details: systemic treatment
participants with T2DM = assay: Vitamin D supplementation, randomized placebo-controlled trial, oxidative stress biomarkers; type: in vivo, human
Protocol: Methods: The participants (n = 31; age 46 ± 6.45 years; sex 21/10 female/male) with T2DM were enrolled in this study in two groups. One group received one capsule/week of vitamin D (50.000 U) or placebo for 90 days. At the beginning and after intervention, laboratory analyses (biochemical and OS markers) were performed. After fasting for 12 h, the subjects underwent the following laboratory blood analysis: glucose, lipid profile, uric acid, and C-reactive protein (CRP) which were evaluated by a biochemical autoanalyzer (Dimension Dade AR; Dade Behring), insulin and vitamin D were evaluated by MEIA (AxSYM, Abbott Laboratory, Abbott Park, IL, USA). Advanced oxidation protein products (AOPP) were determined in the plasma using the semiautomated method described by Witko-Sarsat. Analysis of plasma hydroperoxide concentrations was evaluated by two methods (tertbutyl hydroperoxide-initiated chemiluminescence and FOX assay). This study was conducted according to the principles of the Helsinki, and the study protocol was approved by the ethics committee of the University (CAAE: 41718014.9.0000.5231). Kruskal- Wallis with post hoc Dunn’test was performed to verify differences across intervention (placebo or vitamin D). Graph Pad Instat 3 version was used for evaluations.

patient with BSCL = assay: Case report: metreleptin in Berardinelli-Seip congenital lipodystrophy; type: in vivo, human
Protocol: Case presentation: Two brothers with neonatal diagnosis of Berardinelli-Seip Congenital Lipodystrophy (BSCL), without cases of diabetes or similar diseases in their family. Clinically, both present muscular hypertrophy and acromegaloid features. […] Serum leptin 1 ng/mL (reference range: 2–18). […] Leptin 1.3 ng/mL. In 2016, HbA1C 7.8%, in use of Metformin 2 g/day, pioglitazone and vitamins E, A and D supplementation. […] By that time, Metreleptin was initiated at a 5 mg/day dose (0.07 mg/kg/day) and Metformin was maintained. After 3 months, the patient has HbA1C 5%, triglyceride level 70 mg/dL, TGO 42 U/L and TGP 32 U/L.

child with CGL type 2 = assay: Case report: high doses of insulin in congenital generalized lipodystrophy; type: in vivo, human; details: continuous IV infusion of RI raised to 26.6 IU/kg/day
Protocol: Case: Child with clinical diagnosis of CGL type 2 and diagnosis of diabetes for 1 year. Using Glargina and Lispro insulin basal/bolus (5.1 IU/kg/day) presented mean daily capillary glycemia above 600 mg/dl, associated with irritability, low weight and voracious appetite. Interned for intravenous insulin therapy and nutritional adjustment with standardized diet of 1600 kcal/day fractionated in 7 meals. Initiated continuous infusion of regular insulin (RI), 6.1UI/kg/day. […] Subsequently, it was modified to intramuscular administration, in 5 application times, without differences in glycemic averages. On the 36 th day, Degludeca insulin was introduced (9.3 IU/kg/day) associated with RI (18.2 U/kg/day), evolving within the first 24 h with improved glycemia (180 ± 42 mg/dl). […] After approximately fivefold increase in the initial insulin dose, there was improvement in glycemia, irritability, weight gain and decreased appetite.

CO/N=C(\C(=O)N[C@@H]1C(=O)N2C(C(=O)O)=C(CSc3nc(=O)c(=O)[nH]n3C)CS[C@H]12)c1csc(N)n1 [Ceftriaxone]
%R (resistance), Gram-positive (Gram-positive): 70%

N#CC(Cc1ccc(O)cc1)c1ccc(O)cc1 (centres unmarked) [DPN]
Slc2a4/GLUT4 expression [1]: decreased

CCOc1ccc(Cc2cc([C@@H]3O[C@H](CO)[C@@H](O)[C@H](O)[C@H]3O)ccc2Cl)cc1 [Dapaglifozin, dapagliflozin]
adiponectin levels ([2]; 3.2 ± 1.4 at baseline, p = 0.02): 5.7 ± 3.3 µg/mL
insulinemia ([2]; 5.7 ± 3.6 at baseline, p = 0.05): 3.9 ± 3.5 mU/mL
BMI ([2]; 21.7 ± 2.0 at baseline, p = 0.05): 21.5 ± 2.0 kg/m^2
fat percentage ([2]; 28.4 ± 6.3 at baseline, p = 0.46): 27.6 ± 4.0%
glycemia ([2]; 75 ± 7 at baseline, p = 0.02): 71 ± 7 mg/dL
weight (W) ([3]; 9 months of DAPA 10 mg/day and MTF 1 g/day, 78.6 kg before): 69.9 kg
BMI ([3]; 9 months, 33.14 before): 29.47 kg/m^2
abdominal circumference (AC) ([3]; 9 months, 108 cm before): 98 cm
postprandial glycemia (PPG) ([3]; 9 months, 163 before): 152 mg/dL
fasting glycemia (FG) ([3]; 9 months, 166 before): 118 mg/dL
Hb1Ac ([3]; 9 months, […] before): 7.0%
HbA1c ([3]; during 3 years of follow-up): around 6.8%
weight (W) ([3]; during 3 years of follow-up): 69 kg
average BMI after treatment (patients with DM1; 26.1 before, p = 0.002): 25.4 kg/m^2
systolic blood pressure, median after therapy (patients with DM1; 120 mmHg before, p = 0.02): 115 mmHg
patients with ketoacidosis (patients with DM1; in vivo): 8.3%
patients with pain or pruritus on genital region (patients with DM1; in vivo): 33.3%
patients with urinary tract infection (UTI) (patients with DM1; n = 12): 8.3%
average weight after therapy (patients with DM1; n = 12, 68.3 kg before, p = 0.002): 65.3 kg
body weight gain (mean) (C57BL/6 mice; 1, 5 or 10 mg/kg, 2 weeks, p < 0.05): 0.56 ± 1.1 g
food intake (C57BL/6 mice; 2 weeks): did not alter food intake significantly
fasting glycemia (mean) (C57BL/6 mice; 2 weeks, p < 0.05): 165.6 ± 28.8 mg/dL
epididymal adipose mass (mean) (C57BL/6 mice; 2 weeks, p = 0.13): 0.15 ± 0.02 g
area under glucose curve during the glucose tolerance test (mean) (C57BL/6 mice; ipGTT, p < 0.05): 28,078 ± 5623.5 arbitrary units
glycosuria (mean) (C57BL/6 mice; min = 30, max = 1221, p < 0.05): 307.2 mg/dL
arterial pH at readmission [4]: 7.23
bicarbonate at readmission [4]: 5 mEq/L
glucose at readmission [4]: 165 mg/dL

C[C@]12CC[C@@H]3c4ccc(O)cc4CC[C@H]3[C@@H]1CC[C@@H]2O [E2, estradiol]
Slc2a4/GLUT4 expression [1]: increased

CC[C@H]1OC(=O)[C@H](C)[C@@H](O[C@H]2C[C@@](C)(OC)[C@@H](O)[C@H](C)O2)[C@H](C)[C@@H](O[C@@H]2O[C@H](C)C[C@H](N(C)C)[C@H]2O)[C@](C)(O)C[C@@H](C)C(=O)[C@H](C)[C@@H](O)[C@]1(C)O [Erythromycin]
%R (resistance), Gram-positive (Gram-positive): 70%

Cc1onc(-c2ccccc2)c1C(=O)N[C@@H]1C(=O)N2[C@@H]1SC(C)(C)[C@@H]2C(=O)O [Oxacillin]
%R (resistance), Gram-positive (Gram-positive): 70%

CCCc1c(-c2ccc(O)cc2)nn(-c2ccc(O)cc2)c1-c1ccc(O)cc1 [PPT]
Slc2a4/GLUT4 expression [1]: increase

CC1=Nc2ccc(Cl)cc2S(=O)(=O)N1 [diazoxid]
clinical response of postprandial hypoglycemia [5]: hypoglycemia was avoided

CCN(CC)CC#CCOC(=O)C(O)(c1ccccc1)C1CCCCC1 (centres unmarked) [oxybutynin]
response of gustatory sweating (patient with T2DM): excellent response as early as week 1
side effect (patient with T2DM): mild side effect of xerostomia

C=C1CC[C@H](O)C/C1=C/C=C1\CCC[C@]2(C)[C@@H]([C@H](C)/C=C/[C@H](C)C(C)C)CC[C@@H]12 [vitamin D]
hydroperoxides levels vs placebo group (participants with T2DM; 50.000 U/week, 90 days, p = 0.008): significant reduction
FOX levels vs placebo group (participants with T2DM; 50.000 U/week, 90 days, p = 0.08): trend to decrease
AOPP vs placebo group (participants with T2DM; one capsule/week 50.000 U for 90 days, plasma, p = 0.05): significant reduction

Metreleptin: a recombinant leptin analog
HbA1C (patient with BSCL; 3 months of Metreleptin 5 mg/day with Metformin, […] before): 5%
TGO (patient with BSCL; after 3 months): 42 U/L
TGP (patient with BSCL; after 3 months): 32 U/L

RI: regular insulin
mean capillary glycemia (child with CGL type 2): 283 ± 99 mg/dL

Reference: publication PMC5907308, “21st Brazilian Diabetes Society Congress” (Diabetology & Metabolic Syndrome, 2018)
